The target in one data set is PFKFB3 (Homo sapiens, UniProt Q16875). Kind of data set: Isothermal titration calorimetry. It counts as binding. The conditions noted are these: 25 °C. How it is done:
ITC was performed for the titration of 200 μM KAN0438241 into 20 μM PFKFB3 protein. Raw ITC data was recorded for 12 × 3 μl injections (preceded by 0.4 μl injection). Data was collected with PEAQ-ITC system (MicroCal™, Malvern Instruments) at 25 °C, 10 μcal/s Reference Power, High Feedback, and 750 rpm stirring rate. A constant value of the heat of dilution was fitted along with the binding parameters. Data analysis performed with dedicated PEAQ-ITC analysis software (MicroCal, Malvern Instruments).

The next data set deals with T1, AURKB (Homo sapiens, UniProt Q96GD4).
T1 construct: purchased DiscoverX (Eurofins) KINOMEscan / scanEDGE, inferred from the naming style
Kind of data set: KINOMEscan. It counts as binding. The settings on record: 2000 nM; read-out: Percent Control.

The target in another data set is T2, AXL (Homo sapiens, UniProt P30530).
T2 construct: purchased DiscoverX (Eurofins) KINOMEscan / scanEDGE, inferred from the naming style
Kind of data set: KINOMEscan. In kind it is binding. The conditions noted are these: 2000 nM; read-out: Percent Control.

The next data set deals with T3, CDK7 (Homo sapiens, UniProt P50613).
T3 construct: purchased DiscoverX (Eurofins) KINOMEscan / scanEDGE, inferred from the naming style
Kind of data set: KINOMEscan. In kind it is binding. The conditions noted are these: 2000 nM; read-out: Percent Control.

The target of the next data set is T4, CSF1R (Homo sapiens, UniProt P07333).
T4 construct: purchased DiscoverX (Eurofins) KINOMEscan / scanEDGE, inferred from the naming style
The data set is described as follows: KINOMEscan. In kind it is binding. The settings on record: 2000 nM; read-out: Percent Control.

The target in the next data set is T5, EGFR (Homo sapiens, UniProt P00533).
T5 construct: purchased DiscoverX (Eurofins) KINOMEscan / scanEDGE, inferred from the naming style
Kind of data set: KINOMEscan. In kind it is binding. The settings on record: 2000 nM; read-out: Percent Control.

In another data set the target is T6, EGFR(L858R) (Homo sapiens, UniProt P00533, L858R).
T6 construct: purchased DiscoverX (Eurofins) KINOMEscan / scanEDGE, inferred from the naming style
The data set is described as follows: KINOMEscan. In kind it is binding. The settings on record: 2000 nM; read-out: Percent Control.

A further data set deals with T7, ERBB2 (Homo sapiens, UniProt P04626).
T7 construct: purchased DiscoverX (Eurofins) KINOMEscan / scanEDGE, inferred from the naming style
Kind of data set: KINOMEscan. In kind it is binding. The conditions noted are these: 2000 nM; read-out: Percent Control.

A further data set has as its target T8, ERBB4 (Homo sapiens, UniProt Q15303).
T8 construct: purchased DiscoverX (Eurofins) KINOMEscan / scanEDGE, inferred from the naming style
The data set is described as follows: KINOMEscan. It counts as binding. The settings on record: 2000 nM; read-out: Percent Control.

A further data set deals with T9, FAK (Homo sapiens, UniProt Q05397).
T9 construct: purchased DiscoverX (Eurofins) KINOMEscan / scanEDGE, inferred from the naming style
Kind of data set: KINOMEscan. In kind it is binding. The settings on record: 2000 nM; read-out: Percent Control.

For another data set, the target named is T10, FGFR3 (Homo sapiens, UniProt P22607).
T10 construct: purchased DiscoverX (Eurofins) KINOMEscan / scanEDGE, inferred from the naming style
Kind of data set: KINOMEscan. In kind it is binding. The settings on record: 2000 nM; read-out: Percent Control.

A further data set has as its target T11, FLT3 (Homo sapiens, UniProt P36888).
T11 construct: purchased DiscoverX (Eurofins) KINOMEscan / scanEDGE, inferred from the naming style
Kind of data set: KINOMEscan. It counts as binding. The settings on record: 2000 nM; read-out: Percent Control.

A further data set addresses T12, GSK3B (Homo sapiens, UniProt P49841).
T12 construct: purchased DiscoverX (Eurofins) KINOMEscan / scanEDGE, inferred from the naming style
Kind of data set: KINOMEscan. The settings on record: 2000 nM; read-out: Percent Control. In kind it is binding.

In data set [1] the test system is cell lines representing pancreatic, gastric, and colon cancer. The data set is described as follows: Cell viability of cancer cell lines. It counts as cell-based. The settings on record: prolonged incubation (72 h). The protocol:
Cell proliferation was assayed by quantifying total cellular protein levels after indicated treatments and incubation times using the Sulphorhodamine B kit, TOX6 (Sigma-Aldrich). MIA PaCa-2, PANC1, SW620, and SW480 cells were plated at a density of 6 × 10^3 cells/well in 96-well plates (CLS3596, Sigma-Aldrich) and allowed to attach overnight. The following day, compounds were diluted in dose–response curve mode, required volume was transferred to assay medium to a maximal DMSO concentration of 0.1%. The diluted compounds were added to the cells with a starting dose–response concentration of 100 µM, all compounds were tested in duplicate plates. After 72 h of incubation with compounds, total protein per well was precipitated using TCA according to the manufacturer's instructions; the sulphorhodamine dye was added to the air-dried wells. After 20 min incubation at room temperature, the dye was discarded and the samples were gently rinsed with 1% HOAc until clear. After air drying, bound dye was solubilized in 10 mM Tris base, and the absorbance of dye was measured at 565 nm. To quantify growth, samples were collected also at t = 0 h, and the resulting absorbance was set to 100%.

The subject of the next data set is BJ TERT cells. Kind of data set: Clonogenic survival, BJ TERT. It counts as cell-based. The settings on record: with and without IR (2 Gy), concentrations active in BJ RAS. How it is done:
U2OS cells were transfected with indicated siRNAs and 24 h later exposed to IR (2 Gy) or left untreated and allowed to recover for 4 h. One-hundred U2OS cells were then seeded into 6-well plates and after 10 days colonies were fixed and stained with 4% methylene blue (Sigma Aldrich) in methanol. BJ TERT (500 cells), BJ RAS (200 cells), or U2OS (200 cells) were seeded into 6-well plates 24 h prior to treatment with inhibitors as indicated or vehicle for 24 h and then subjected to IR (2 Gy). The inhibitors were washed out 72 h later and colonies were fixed 4 days (BJ RAS) or 7 days (BJ TERT) later with 4% methylene blue in methanol.

The test system of data set [2] is U2OS cells. The data set is described as follows: Intracellular dNTP measurement (HIV-1 RT-based). It counts as cell-based. The conditions noted are these: 4 h and 24 h, relative to DMSO. The protocol: HIV-1 RT-based dNTP assay[55] was used to quantify dNTP levels in U2OS cells upon indicated treatment and time points. Briefly, cells were trypsinized and counted before dNTPs extraction by 60% methanol solution, the dried dNTP samples were resuspended with water, and then RT-based primer extension reaction was performed to determine the amounts of dNTPs. Obtained dNTP amounts were normalized to 1 × 10^6 cells, and dNTP levels were related to control treatment with DMSO.

In data set [3] the test system is U2OS cells. Kind of data set: IR-induced Mre11 / Nbs1 foci formation. In kind it is cell-based. The conditions noted are these: treatment prior to IR (6 Gy, 2 h recovery). The protocol:
(§1) Cells were grown on sterilized coverslips and fixed with 4% paraformaldehyde (PFA) (Santa Cruz) and 2% sucrose (Sigma Aldrich) for 15 min at room temperature. They were then permeabilized with 0.2% NP-40 (Thermo Scientific) for 10 min at room temperature followed by 30 min of blocking in blocking buffer (2 or 3% BSA, 5% glycerol, 0.1% Tween 20 (Sigma Aldrich)). Coverslips were subsequently incubated for 1, 2, or 24 h in primary antibody and 40 min in secondary antibody diluted in blocking buffer, DNA was stained with DAPI for 10 min. The coverslips were mounted with Prolonged Gold mounting medium (Invitrogen). Images were acquired with a Zeiss LSM 780 microscope using a 40× or 63× oil immersion lens and processed in ImageJ and CellProfiler.

Data set [4] concerns U2OS cells. The data set is described as follows: IR-induced PFKFB3/RRM2 foci co-localization. The settings on record: pre-treatment prior to IR 6 Gy. It counts as cell-based. How it is done: as §1
To visualize PFKFB3, RPA32, RAD51, BRCA1, 53BP1, and RRM2 IRIF, the cells were first washed with PBS and then incubated for 5 min at room temperature with cytoskeleton (CSK) buffer containing 10 mM PIPES pH 7.0 (Sigma Aldrich), 100 mM NaCl (EMD Millipore), 300 mM sucrose (Sigma Aldrich), 3 mM MgCl2 (Sigma Aldrich), and 0.7% Triton X-100 (Sigma Aldrich). After these treatments, the cells were washed once again with PBS and then fixed in 4% PFA with 2% sucrose.

The record followed here is paper PMC6155239, “Targeting PFKFB3 radiosensitizes cancer cells and suppresses homologous recombination” (Nature Communications, 2018).

T9 sequence (Q05397 whole entry): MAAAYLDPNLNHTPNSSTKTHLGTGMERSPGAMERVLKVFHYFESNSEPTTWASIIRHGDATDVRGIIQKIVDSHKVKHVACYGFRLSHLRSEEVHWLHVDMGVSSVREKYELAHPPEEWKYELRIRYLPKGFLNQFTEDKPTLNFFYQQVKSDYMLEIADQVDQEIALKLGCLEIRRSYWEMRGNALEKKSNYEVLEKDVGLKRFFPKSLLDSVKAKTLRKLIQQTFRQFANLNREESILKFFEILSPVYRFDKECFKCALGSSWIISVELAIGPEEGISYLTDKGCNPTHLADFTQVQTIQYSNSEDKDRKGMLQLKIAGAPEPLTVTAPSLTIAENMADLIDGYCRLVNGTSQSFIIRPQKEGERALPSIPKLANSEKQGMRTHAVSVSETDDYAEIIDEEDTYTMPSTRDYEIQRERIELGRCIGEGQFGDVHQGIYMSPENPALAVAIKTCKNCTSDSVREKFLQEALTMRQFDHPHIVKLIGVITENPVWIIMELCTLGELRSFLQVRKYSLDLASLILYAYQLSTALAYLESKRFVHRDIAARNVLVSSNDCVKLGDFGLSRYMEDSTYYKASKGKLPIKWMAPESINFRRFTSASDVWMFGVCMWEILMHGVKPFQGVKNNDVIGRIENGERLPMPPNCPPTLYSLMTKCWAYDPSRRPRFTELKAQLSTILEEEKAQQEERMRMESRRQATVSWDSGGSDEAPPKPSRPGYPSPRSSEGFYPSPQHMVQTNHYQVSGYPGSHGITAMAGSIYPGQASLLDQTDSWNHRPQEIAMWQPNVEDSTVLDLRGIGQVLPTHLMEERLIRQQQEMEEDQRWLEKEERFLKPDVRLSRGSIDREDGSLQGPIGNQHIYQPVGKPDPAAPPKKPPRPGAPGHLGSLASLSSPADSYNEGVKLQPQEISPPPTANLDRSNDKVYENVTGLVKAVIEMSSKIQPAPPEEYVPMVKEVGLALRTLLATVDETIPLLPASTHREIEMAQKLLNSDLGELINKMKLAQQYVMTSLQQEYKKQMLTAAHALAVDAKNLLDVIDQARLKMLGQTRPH
PFKFB3, sequence (Q16875 whole entry): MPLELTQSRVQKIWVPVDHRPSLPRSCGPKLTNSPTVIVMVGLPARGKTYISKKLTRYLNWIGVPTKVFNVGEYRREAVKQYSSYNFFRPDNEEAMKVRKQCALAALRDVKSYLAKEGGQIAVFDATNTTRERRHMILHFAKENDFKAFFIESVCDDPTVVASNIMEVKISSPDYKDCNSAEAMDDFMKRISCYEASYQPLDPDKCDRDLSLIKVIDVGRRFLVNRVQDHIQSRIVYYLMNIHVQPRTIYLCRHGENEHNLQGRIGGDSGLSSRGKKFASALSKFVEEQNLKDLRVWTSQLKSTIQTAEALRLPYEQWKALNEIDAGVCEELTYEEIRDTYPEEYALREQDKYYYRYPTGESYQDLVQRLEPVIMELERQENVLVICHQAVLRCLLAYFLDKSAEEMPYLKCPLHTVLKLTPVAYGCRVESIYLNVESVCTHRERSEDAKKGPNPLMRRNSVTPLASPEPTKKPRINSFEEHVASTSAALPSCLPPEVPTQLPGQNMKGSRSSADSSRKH
T6 sequence (P00533 25-1210 L858R): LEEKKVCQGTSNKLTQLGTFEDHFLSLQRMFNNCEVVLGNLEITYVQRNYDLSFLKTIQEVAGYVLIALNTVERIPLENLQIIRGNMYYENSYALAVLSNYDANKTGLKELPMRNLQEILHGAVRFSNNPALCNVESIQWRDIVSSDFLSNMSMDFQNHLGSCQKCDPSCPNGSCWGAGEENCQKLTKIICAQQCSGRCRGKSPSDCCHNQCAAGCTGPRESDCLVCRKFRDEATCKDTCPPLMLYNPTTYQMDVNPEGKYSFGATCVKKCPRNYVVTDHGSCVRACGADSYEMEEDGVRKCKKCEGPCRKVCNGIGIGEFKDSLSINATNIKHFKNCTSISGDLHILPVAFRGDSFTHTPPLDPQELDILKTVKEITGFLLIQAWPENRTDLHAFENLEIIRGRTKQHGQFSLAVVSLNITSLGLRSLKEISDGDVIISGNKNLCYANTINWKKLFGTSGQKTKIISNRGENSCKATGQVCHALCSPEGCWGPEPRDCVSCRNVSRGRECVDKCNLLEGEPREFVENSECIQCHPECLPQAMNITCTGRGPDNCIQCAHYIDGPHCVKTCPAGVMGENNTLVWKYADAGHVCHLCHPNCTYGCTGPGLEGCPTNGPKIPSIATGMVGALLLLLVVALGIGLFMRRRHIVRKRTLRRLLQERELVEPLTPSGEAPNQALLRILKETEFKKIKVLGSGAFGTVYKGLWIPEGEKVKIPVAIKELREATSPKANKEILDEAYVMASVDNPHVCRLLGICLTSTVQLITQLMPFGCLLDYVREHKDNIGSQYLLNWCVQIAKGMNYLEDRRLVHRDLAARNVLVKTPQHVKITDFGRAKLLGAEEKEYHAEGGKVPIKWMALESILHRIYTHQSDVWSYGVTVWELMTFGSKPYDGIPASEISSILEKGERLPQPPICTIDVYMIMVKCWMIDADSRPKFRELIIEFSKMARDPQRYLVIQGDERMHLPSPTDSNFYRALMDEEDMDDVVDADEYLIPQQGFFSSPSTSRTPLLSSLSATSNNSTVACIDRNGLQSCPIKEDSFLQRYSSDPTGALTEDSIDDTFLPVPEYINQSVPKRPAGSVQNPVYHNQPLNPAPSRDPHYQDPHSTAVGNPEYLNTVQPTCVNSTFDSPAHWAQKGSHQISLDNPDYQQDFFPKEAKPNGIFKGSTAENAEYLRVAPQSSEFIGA
T8 sequence (Q15303 26-1308): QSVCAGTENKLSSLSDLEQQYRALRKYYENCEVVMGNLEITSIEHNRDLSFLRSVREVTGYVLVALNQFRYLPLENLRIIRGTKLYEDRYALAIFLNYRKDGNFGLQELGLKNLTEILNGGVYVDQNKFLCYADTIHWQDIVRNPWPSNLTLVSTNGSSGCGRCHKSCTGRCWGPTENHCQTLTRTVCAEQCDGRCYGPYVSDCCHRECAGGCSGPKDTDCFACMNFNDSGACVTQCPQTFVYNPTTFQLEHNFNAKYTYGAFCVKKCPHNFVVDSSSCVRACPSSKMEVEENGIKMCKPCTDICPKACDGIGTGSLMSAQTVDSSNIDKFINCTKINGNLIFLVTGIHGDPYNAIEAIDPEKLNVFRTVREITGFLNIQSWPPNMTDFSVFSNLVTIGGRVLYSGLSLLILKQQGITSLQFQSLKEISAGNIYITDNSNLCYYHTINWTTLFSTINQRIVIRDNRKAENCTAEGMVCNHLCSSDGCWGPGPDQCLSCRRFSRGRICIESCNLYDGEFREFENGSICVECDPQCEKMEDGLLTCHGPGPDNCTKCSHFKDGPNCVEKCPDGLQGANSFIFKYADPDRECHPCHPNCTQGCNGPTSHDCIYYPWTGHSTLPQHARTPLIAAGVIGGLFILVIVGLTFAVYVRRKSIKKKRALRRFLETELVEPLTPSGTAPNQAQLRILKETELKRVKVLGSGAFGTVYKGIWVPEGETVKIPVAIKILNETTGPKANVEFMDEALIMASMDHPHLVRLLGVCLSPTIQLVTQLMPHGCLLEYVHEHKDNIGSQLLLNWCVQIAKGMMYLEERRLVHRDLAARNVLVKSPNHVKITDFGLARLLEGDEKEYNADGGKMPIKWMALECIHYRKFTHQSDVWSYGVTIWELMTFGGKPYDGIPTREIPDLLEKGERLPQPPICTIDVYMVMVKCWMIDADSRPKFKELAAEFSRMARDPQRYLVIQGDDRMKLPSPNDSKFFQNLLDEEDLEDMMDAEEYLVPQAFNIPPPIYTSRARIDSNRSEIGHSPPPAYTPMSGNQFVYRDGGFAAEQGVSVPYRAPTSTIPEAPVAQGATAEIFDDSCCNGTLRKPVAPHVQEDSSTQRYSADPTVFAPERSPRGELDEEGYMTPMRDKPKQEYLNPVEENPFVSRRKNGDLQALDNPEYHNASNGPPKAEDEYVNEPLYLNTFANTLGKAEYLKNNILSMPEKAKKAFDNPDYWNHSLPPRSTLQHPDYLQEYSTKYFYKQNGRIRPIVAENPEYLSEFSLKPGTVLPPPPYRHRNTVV
T4 sequence (P07333 20-972): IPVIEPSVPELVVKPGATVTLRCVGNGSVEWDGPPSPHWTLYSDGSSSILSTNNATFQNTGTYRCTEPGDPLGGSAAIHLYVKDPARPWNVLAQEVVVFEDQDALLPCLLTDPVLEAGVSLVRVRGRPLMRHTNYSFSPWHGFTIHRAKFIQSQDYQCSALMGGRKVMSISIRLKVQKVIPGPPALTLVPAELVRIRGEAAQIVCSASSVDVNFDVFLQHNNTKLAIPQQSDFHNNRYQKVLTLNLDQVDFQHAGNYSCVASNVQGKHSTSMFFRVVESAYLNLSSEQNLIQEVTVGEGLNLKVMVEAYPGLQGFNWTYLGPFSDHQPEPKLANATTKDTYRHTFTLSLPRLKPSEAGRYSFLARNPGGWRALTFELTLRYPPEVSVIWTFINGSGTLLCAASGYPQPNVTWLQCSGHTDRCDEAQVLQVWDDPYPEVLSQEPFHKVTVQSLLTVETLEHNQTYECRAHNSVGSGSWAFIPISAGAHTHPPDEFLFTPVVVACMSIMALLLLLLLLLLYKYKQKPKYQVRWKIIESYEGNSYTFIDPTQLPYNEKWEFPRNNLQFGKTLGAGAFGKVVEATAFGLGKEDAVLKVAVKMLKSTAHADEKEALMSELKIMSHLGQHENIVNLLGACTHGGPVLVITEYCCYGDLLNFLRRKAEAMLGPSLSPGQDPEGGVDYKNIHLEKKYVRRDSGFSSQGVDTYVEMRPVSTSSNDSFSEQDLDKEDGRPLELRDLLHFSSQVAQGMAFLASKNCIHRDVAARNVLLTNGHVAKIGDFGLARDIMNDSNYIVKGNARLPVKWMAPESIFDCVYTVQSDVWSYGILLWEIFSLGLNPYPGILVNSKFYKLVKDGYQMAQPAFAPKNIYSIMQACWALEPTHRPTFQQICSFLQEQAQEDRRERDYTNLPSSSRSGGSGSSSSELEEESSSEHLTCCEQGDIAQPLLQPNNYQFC

As for `O=C(O)c1ccc(NS(=O)(=O)c2cccc(-c3cc(F)ccc3O)c2)cc1O` [KAN0438241, 4-{[(5′-Fluoro-2′-hydroxybiphenyl-3-yl)sulfonyl]amino}-2-hydroxybenzoic acid], the “potency for PFKFB3 by isothermal titration calorimetry (in words)” value on PFKFB3 is “sub-µM potency”. The remaining binding at 2 µM amounted to 92% at AURKB; 100% on AXL; 93% at CDK7; 90% at CSF1R; 93% on EGFR; 90% at EGFR(L858R). The remaining binding at 2 µM at ERBB2 was found to be 92%; on ERBB4, 96%; on FAK, 96%; on FGFR3 it was 95%; on FLT3, 94%; on GSK3B, 91%.
Take `O=C(OCCO)c1ccc(NS(=O)(=O)c2cccc(-c3cc(F)ccc3O)c2)cc1O` [KAN0438757, 2-Hydroxyethyl-4-{[(5′-fluoro-2′-hydroxybiphenyl-3-yl)sulfonyl]amino}-2-hydroxybenzoate]: the “effect on cell viability” value in data set [1] is on record as “significantly reduce cell viability”. In the data set on BJ TERT cells, the “clonogenic survival of BJ TERT (in words)” value was “only marginally affected”. Moreover, the “decrease of all four dNTPs” value in the data set on U2OS cells [2] is recorded as 50–75%. Moreover, the “IR-induced Mre11 or Nbs1 foci formation (in words)” value in the data set with U2OS cells [3] is given as “did not affect”. Further, the “IR-induced co-localization of PFKFB3 and RRM2 (in words)” value in the data set on U2OS cells [4] is recorded as “disrupted”.
